Test results as given in PMC12475274, “Harnessing indole scaffolds to identify small-molecule IRE1α inhibitors modulating XBP1 mRNA splicing” (Nature Communications, 2025).
Where “and” joins values, the source holds several entries; their conditions need not be identical. Equal entries are not always repeated. Where two headings read alike, the source gives them in different places.

Legend:
[1] = target: T1, phosphorylated IRE1α (p-IRE1α) (Homo sapiens, UniProt O75460); experiment: FRET-based IRE1α RNase activity assay, phosphorylated IRE1α; type: biochemical; conditions: FRET assay
T1 construct: Human IRE1α kinase and RNase domain (residues 547–977) was subcloned into pLIB plasmid; His tag (with TEV cleavage site) (N, cleaved yes); made in house; host or cells: Sf9 insect cells, baculovirus (Bac-to-Bac)
Procedure, shortened: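 Cleavage of a dual-labeled XBP1 RNA (200 nM) was followed kinetically over 1 h at room temperature at 485/535 nm, with initial slopes giving percent inhibition and IC50. Enzyme was 4 nM phosphorylated human IRE1α 547–977 from insect cells, incubated with compound for 30 min before substrate; buffer 20 mM HEPES pH 7.5, KOAc, MgOAc2, DTT, Triton X-100.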

[2] = target: T2, p-IRE1α (Homo sapiens, UniProt O75460); experiment: Differential scanning fluorimetry (DSF), p-IRE1α; type: binding; conditions: individual replicate values
T2 construct: Human IRE1α kinase and RNase domain (residues 547–977) was subcloned into pLIB plasmid; His tag (with TEV cleavage site) (N, cleaved yes); made in house; host or cells: Sf9 insect cells, baculovirus (Bac-to-Bac)
Description: (§1) The DSF assay was performed in PBS buffer containing 2 mM DTT, in a total reaction volume of 20 µl with indicated compounds (final 1% DMSO) and the final concentration of 1 µM IRE1α protein and 5× SYPRO Orange fluorescent dye (5000× in DMSO, Sigma S5692). The melting curve was measured at a temperature range from 25 °C to 95 °C and in increments of 1 °C for 30 s using a Bio-Rad CFX96 Real-Time PCR detection system with the FRET scan mode. The melting temperature (Tm) was obtained by fitting the melting curve to Boltzmann sigmoidal in GraphPad Prism and the thermal shift (∆Tm) was calculated by using the equation: ∆Tm = Tm(compound) -Tm(DMSO).

[3] = target: T3, IRE1α (Homo sapiens, UniProt O75460); experiment: Differential scanning fluorimetry (DSF), IRE1α; type: binding; conditions: for IRE1 ∆Tm(°C): Supplementary Fig. 3d/3e, replicate values
T3 construct: Human IRE1α kinase and RNase domain (residues 547–977) was subcloned into pLIB plasmid; His tag (with TEV cleavage site) (N, cleaved yes); made in house; host or cells: Sf9 insect cells, baculovirus (Bac-to-Bac)
Description: as §1

[4] = target: T4, dephosphorylated IRE1α (Homo sapiens, UniProt O75460); experiment: Isothermal titration calorimetry (ITC), incl. competitive ITC; type: binding; conditions: titrating 200 μM compound into 10 μM IRE1α; no competitor (DMSO); read-out: KD (ITC)
T4 construct: Human IRE1α kinase and RNase domain (residues 547–977) was subcloned into pLIB plasmid; His tag (with TEV cleavage site) (N, cleaved yes); made in house; host or cells: Sf9 insect cells, baculovirus (Bac-to-Bac)
Description: The dephosphorylated IRE1α protein was used directly after purification, ITC experiments were carried out at 25 °C using MicroCal PEAQ-ITC system (Malvern) in buffer 25 mM HEPES pH 7.5, 250 mM NaCl, 1 mM TCEP, 5% glycerol, 1% DMSO. The solution was diluted to a final 1% DMSO in the same buffer as for the protein. Protein and compound solution were degassed before loading to the cell and syringe respectively. Unless otherwise noted, 200 μM of compound was loaded into the syringe and 10 μM of IRE1α protein was loaded into the sample cell. For competitive ITC, the protein was incubated with the indicated compound at 25 °C (final 1% DMSO) before loading to the cell. Instrument settings were: reference power 10 μcal/s, feedback high, stir speed 750 rpm, initial delays 60 s, injection spacing 150 s, injection duration 4 s. All experiments were performed with a single 0.4 μL injection followed by 18 (or 15), 2 μL injections. Data were analyzed using MicroCal PEAQ-ITC analysis software. The one set of sites fitting model is used for the calorimetry data analysis, with cell concentration and syringe concentration as the input parameters. For compound IA01, the N was set to 1 to improve the fit.

T3 sequence (O75460 547-977): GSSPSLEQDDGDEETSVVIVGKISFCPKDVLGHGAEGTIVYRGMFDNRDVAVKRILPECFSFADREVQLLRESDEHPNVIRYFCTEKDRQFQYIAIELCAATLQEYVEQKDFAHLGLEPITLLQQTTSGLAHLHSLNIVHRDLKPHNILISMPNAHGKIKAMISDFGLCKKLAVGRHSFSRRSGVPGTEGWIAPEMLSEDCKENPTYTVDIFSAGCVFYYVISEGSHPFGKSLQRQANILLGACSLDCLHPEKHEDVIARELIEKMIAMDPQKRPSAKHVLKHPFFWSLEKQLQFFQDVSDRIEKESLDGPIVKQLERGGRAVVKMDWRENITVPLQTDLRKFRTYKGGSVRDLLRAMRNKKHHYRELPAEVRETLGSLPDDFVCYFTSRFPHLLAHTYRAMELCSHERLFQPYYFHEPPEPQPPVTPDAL
T2 sequence (O75460 547-977): as above
T1 sequence (O75460 547-977): as above
T4 sequence (O75460 547-977): as above

Cc1ccc2c(c1)c(CCC(=O)O)c(C)n2C(=O)c1ccccc1 [IA147]
IC50 ([1]; RNase activity, mean (± SEM), read-out: p-IRE1α IC50): 133 nM and 130 nM
IC50 ([1]; source data, unit from Fig. 3, read-out: p-IRE1a IC50, individual replicates (n1-n4)): 154 nM and 127 nM and 116 nM
p-IRE1a ∆Tm(°C) ([2]; compound 1.563 μM): 0.22 °C and 0.13 °C and 0.08 °C and 0.11 °C
p-IRE1a ∆Tm(°C) ([2]; compound 3.125 μM): 0.29 °C (2×) and 0.42 °C and 0.19 °C
p-IRE1a ∆Tm(°C) ([2]; compound 6.25 μM): 0.58 °C and 0.78 °C and 0.38 °C and 0.50 °C
p-IRE1a ∆Tm(°C) ([2]; compound 12.5 μM): 0.95 °C and 0.90 °C and 0.84 °C and 1.22 °C
p-IRE1a ∆Tm(°C) ([2]; compound 25 μM): 1.52 °C and 1.79 °C and 1.41 °C and 1.95 °C
p-IRE1a ∆Tm(°C) ([2]; compound 50 μM): 2.33 °C and 2.18 °C and 1.98 °C and 2.60 °C
p-IRE1a ∆Tm(°C) ([2]; compound 100 μM): 3.18 °C and 2.83 °C and 2.92 °C and 3.09 °C
stabilization of IRE1α in DSF [3]: concentration-dependently stabilized
IRE1 ∆Tm(°C) ([3]; compound 1.563 μM): 0.4825 °C (2×) and 0.3925 °C and 0.4425 °C
IRE1 ∆Tm(°C) ([3]; compound 3.125 μM): 0.6325 °C and 0.6525 °C and 0.6425 °C and 0.5925 °C
IRE1 ∆Tm(°C) ([3]; compound 6.25 μM): 1.0225 °C and 1.5025 °C and 1.2125 °C and 1.1425 °C
IRE1 ∆Tm(°C) ([3]; compound 12.5 μM): 1.7325 °C and 2.0725 °C and 1.7925 °C (2×)
IRE1 ∆Tm(°C) ([3]; compound 25 μM): 2.7025 °C (2×) and 2.5925 °C and 2.5225 °C
IRE1 ∆Tm(°C) ([3]; compound 50 μM): 3.6525 °C and 3.6025 °C and 3.6325 °C and 3.5325 °C
IRE1 ∆Tm(°C) ([3]; compound 100 μM): 4.5725 °C and 4.5025 °C and 4.4925 °C and 4.4625 °C
Kd [4]: 2990 nM
